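Values below derive from 48-hour exposures of cells grown in 96-well plates, with endpoints linearly interpolated between the two concentrations bracketing the appropriate inhibition level. At the TGI there is no net growth.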

Seven molecules from PubChem BioAssay (NCI) can be followed below.

Common to all, as to assay: NCI-60 cell line screen, 48 h
Experiment [1] relates to UO-31 renal.
For experiment [2], the system named is NCI-H460 lung.
Experiment [3] deals with PC-3 prostate.
The subject of experiment [4] is MCF7 breast.
The subject of experiment [5] is UACC-62 melanoma.
For experiment [6], the system named is UACC-257 melanoma.
For experiment [7], the system named is SK-OV-3 ovarian.
Experiment [8] relates to NCI/ADR-RES ovarian.
The test system of experiment [9] is HCT-15 colon.
Experiment [10] concerns T-47D breast.
Experiment [11] deals with 786-0 renal.
The test system of experiment [12] is MDA-MB-435.
Experiment [13] deals with NCI-H522 lung.
Experiment [14] concerns KM12 colon.
For experiment [15], the system named is HT29 colon.
In experiment [16] the test system is A498 renal.
In experiment [17] the test system is SNB-19 CNS.
In experiment [18] the test system is DU-145 prostate.
Experiment [19] has as its system MOLT-4 leukemia.
Experiment [20] relates to OVCAR-3 ovarian.

As for `CC(=O)OCC1OC(n2c(N)c(C#N)c(C)c(C#N)c2=S)C(OC(C)=O)C(OC(C)=O)C1OC(C)=O` (stereo not given), the TGI in experiment [1], in experiment [2], in experiment [3], in experiment [4], in [5] and in experiment [6] was over 100 µM throughout. For the same molecule, the TGI in [7], in experiment [8], in [9], in experiment [10], in experiment [11] and in [12] was over 100 µM each time. The TGI in [13], in experiment [14], in experiment [15], in experiment [16], in [17] and in experiment [18] was over 100 µM in each case. In addition, the TGI in [19] and in [20] was over 100 µM each time.

Consider `Cc1cc(S(=O)(=O)Nc2n[nH]c(Nc3ccc4ccccc4c3)n2)c(S)cc1Cl`, for which the TGI in [1], in [2], in experiment [3], in experiment [4], in experiment [5] and in experiment [6] was over 100 µM in each case. Further, the TGI in experiment [7] was over 100 µM; in [8], over 100 µM; in [9] it was over 100 µM; in experiment [10] it was over 100 µM; in [11] it was over 100 µM; in [12], 84.2 µM. In addition, the TGI in experiment [13] was 84.2 µM; in experiment [14] it was 95 µM; in experiment [15], over 100 µM; in experiment [16], over 100 µM; in experiment [17], over 100 µM; in experiment [18], over 100 µM. For the same molecule, the TGI in experiment [19] is over 100 µM; in experiment [20], 51.7 µM.

Regarding `COc1cc(C(C[N+](=O)[O-])SC(C)=O)ccc1OCc1ccccc1` (stereo not given), the TGI in experiment [1] is 10.3 µM; in experiment [2], 25.1 µM; in [3], 17.4 µM; in experiment [4] it was 10.7 µM; in [5] it was 8.68 µM; in experiment [6], 10.5 µM. Besides, the TGI in experiment [7] was 29.6 µM; in experiment [8], over 38.3 µM; in [9], 9.11 µM; in [10], 54.5 µM; in [11] it was 3.74 µM; in experiment [12], 10 µM. Moreover, the TGI in experiment [13] is 13.9 µM; in experiment [14], 14 µM; in [15] it was over 20.9 µM; in experiment [16] it was 15.4 µM; in [17], 20.9 µM; in experiment [18], 27.1 µM. The TGI turned out to be 5.52 µM in experiment [19] and 7.87 µM in [20].

In the case of `COC1CC(C)([N+](=O)[O-])C(O)C(C)O1` (stereo not given), the TGI in experiment [1], in experiment [2], in [3], in [4], in [5] and in experiment [6] was over 100 µM each time. The TGI in experiment [7], in experiment [8], in experiment [9], in experiment [10], in [11] and in [12] was over 100 µM throughout. For the same molecule, the TGI in experiment [13], in experiment [14], in [15], in experiment [16], in experiment [17] and in experiment [18] was over 100 µM in each case. The TGI in experiment [19] and in experiment [20] was over 100 µM each time.

For `CCN(CC)CCCNc1ccc([N+](=O)[O-])c2nc3ccc(OC)cc3c(N)c12`, the TGI in experiment [1] was over 10 µM; in experiment [2], 3.32 µM; in [3], 3.31 µM; in experiment [4] it was over 6.17 µM; in [5], over 10 µM; in experiment [6], over 10 µM. Besides, the TGI in experiment [7] was over 5.48 µM; in [8], over 6.02 µM; in experiment [9], 3.15 µM; in [10], over 10 µM; in experiment [11] it was 2.9 µM; in [12], 3.12 µM. Besides, the TGI in [13] was 4.69 µM; in experiment [14], 3.16 µM; in experiment [15] it was 3.95 µM; in experiment [16], over 10 µM; in experiment [17], over 6.29 µM; in [18] it was over 4.96 µM. The TGI was 3.86 µM in [19] and over 6.31 µM in experiment [20].

Turning to `O=C1C2Cc3c(n(C(=O)c4ccccc4)c4ccccc34)CC2C(=O)N1c1ccc(Nc2ccc(N3C(=O)C4Cc5c(n(C(=O)c6ccccc6)c6ccccc56)CC4C3=O)cc2)cc1` (stereo not given), the TGI in experiment [1], in experiment [2], in experiment [3], in [4], in experiment [5] and in experiment [6] was over 100 µM in each case. For the same molecule, the TGI in experiment [7], in experiment [8], in experiment [9], in experiment [10], in experiment [11] and in [12] was over 100 µM in each case. The TGI in experiment [13], in [14], in experiment [15], in experiment [16], in [17] and in experiment [18] was over 100 µM throughout. For the same molecule, the TGI in [19] and in experiment [20] was over 100 µM each time.

As for `CCN(CC)c1ccc2cc(C(=O)NCc3ccccc3)c(=N)oc2c1`, the TGI is 97.3 µM in experiment [1]; over 100 µM in experiment [2]; over 100 µM in experiment [3]; over 100 µM in experiment [4]; over 100 µM in [5]; over 100 µM in experiment [6]. In addition, the TGI was over 100 µM in [7]; over 100 µM in experiment [8]; over 100 µM in experiment [9]; over 28.6 µM in experiment [10]; over 100 µM in experiment [11]; over 100 µM in [12]. Also, the TGI in [13] is 97.3 µM; in experiment [14], over 100 µM; in [15], 36 µM; in experiment [16], over 100 µM; in [17] it was over 100 µM; in experiment [18], over 100 µM. The TGI in experiment [19] and in experiment [20] was over 100 µM throughout.
